{
  "source": "paper PMC3975964",
  "about": "“Protective effect of a sesamin derivative, 3-bis (3-methoxybenzyl) butane-1, 4-diol on ischemic and hypoxic neuronal injury” (Journal of Biomedical Science, 2014)",
  "key": {"[1]": {"test_system": "malondialdehyde (MDA) of brain tissue", "experiment": "Lipid peroxidation (MDA) of ischemic brain tissue", "format": "in vivo, Sprague–Dawley rats", "conditions": "SD rat brain, BBD 10 mg/kg i.p. 90 min after MCAO", "protocol": "(§1) Twenty-four male Sprague–Dawley (SD) rats (200~250 gm) were purchased from National Animal Center, Taipei, Taiwan and randomly divided into the control (normal saline), and BBD groups. The experiment was approved by Institutional Animal Care and Use Committee, Taichung Veterans General Hospital (IACUC LA-97490). Rats were injected intraperitoneally (i.p.) with BBD (10 mg/kg) 90 min after MACO experiment. Each SD rat was anesthetized with chlorohydrate (400 mg/kg) i.p. and its body temperature was maintained at 37°C with a heating pad (CMA/150). A midline neck incision was made and the right carotid artery was exposed and separated from the vago-sympathetic trunk. The right carotid artery was loosely encircled with a 4-O suture for later occlusion. The SD rat’s head was placed in a stereotaxic frame (David Kopf, CA, USA) with the nose bar positioned 4.0 mm below the horizontal line. Following a midline incision, the skull was partially removed to expose the right middle cerebral artery. […]\nLipid peroxidation is quantified by measuring malondialdehyde (MDA) of PC12 cells and brain tissue of SD rats by lipid peroxidation (LPO) assay kit (Cayman). […] MDA levels were assayed by measuring the amount expressed in 5 × 10^5 cells of PC12 and SD brain tissue, and the absorbance at 500 nm was determined using a microplate reader (spectraMAX 340)."}, "[2]": {"test_system": "superoxide dismutase (SOD) activity", "experiment": "SOD activity of ischemic brain", "format": "in vivo, Sprague–Dawley rats", "conditions": "SD rat brain, BBD 10 mg/kg i.p. 90 min after MCAO", "protocol": "as §1, with “artery. The middle cerebral artery was loosely encircled with an 8-O suture for later occlusion. A focal cerebral ischemia was induced by occlusion of the right common carotid artery and the right cerebral artery (MCAO) for 60 min, followed by reperfusion.” for “artery.”\nSuperoxide dismutase (SOD) activity was determined by a Superoxide Dismutase assay kit (Cayman, Ann Arbor, MI, USA). […]"}, "PC12 cells [3]": {"test_system": "PC12 cells", "experiment": "MTT cell viability under hypoxia, PC12", "format": "cell-based, rat", "conditions": "hypoxia 30 min, BBD 1 to 20 μM", "protocol": "(§2) Murine BV-2 microglial cell line was maintained in DMEM supplemented with 10% (v/v) FBS, 100 U/ml penicillin and 100 μg/ml streptomycin (P/S) in a humidified incubator under 5% CO2 at 37°C. Rat pheochromacytoma PC12 cell line was maintained in DMEM supplemented with 10% FBS, 5% horse serum, P/S at 37°C under 5% CO2. Confluent cultures were passaged by trypsinization. In all experiments, the cells were treated with BBD immediately before hypoxia. BBD was dissolved in DMSO. The final concentration of DMSO added to cells never exceeded 0.1% (v/v).\n(§3) On the day of experiment, culture media were replaced with glucose-free DMEM, then, gassed with 85% N2, 10% H2, and 5% CO2 for various time periods in the absence or presence of various doses of BBD.\n(§4) Cell viability was measured using blue formazan that was metabolized from colorless 3-(4,5-dimethyl-thiazol-2-yl)-2,5-diphenyl tetrazolium bromide (MTT) by mitochondrial dehydrogenases, which are active only in live cells. PC12 or BV2 cells were preincubated in 24-well plates at a density of 5 × 10^5 cells per well for 24 h. […] One hour later, 200 μl of solubilization solution were added to each well and absorption values read at 540 nm on microtiter plate reader (spectraMAX 340, Molecular Devices, Sunnyvale, CA, USA). Data were expressed as the mean percent of viable cells vs. control."}, "BV-2 cells [4]": {"test_system": "BV-2 cells", "experiment": "MTT cell viability under hypoxia, BV-2", "format": "cell-based, murine", "conditions": "hypoxia 30 min, BBD 1, 10, 20 μM", "protocol": "as §2, §3, §4"}, "PC12 cells [5]": {"test_system": "PC12 cells", "experiment": "LDH release under hypoxia, PC12", "format": "cell-based, rat", "conditions": "BBD 1, 10, 20 μM", "protocol": "as §2, §3\n(§5) Cytotoxicity was determined by measuring the release of LDH. PC12 or BV-2 cells treated with various concentrations of BBD were stressed with hypoxia for one hour and the supernatant was then assayed for LDH activity. An absorbance was read at 490/630 nm using a spectraMAX 340 microtiter plate reader. Data were expressed as the mean percent of viable cells vs. the control."}, "BV-2 cells [6]": {"test_system": "BV-2 cells", "experiment": "LDH release under hypoxia, BV-2", "format": "cell-based, murine", "conditions": "BBD 1, 10, 20 μM", "protocol": "as §2, §3, §5"}, "ROS in BV-2 cells": {"test_system": "ROS in BV-2 cells", "experiment": "Hypoxia-induced ROS generation (DCF), BV-2", "format": "cell-based, murine"}, "MDA in BV-2 cells": {"test_system": "MDA in BV-2 cells", "experiment": "Lipid peroxidation (MDA) under hypoxia, BV-2", "format": "cell-based, murine", "conditions": "hypoxia 30 min, BBD 1, 10, 20 μM"}, "IL-1": {"test_system": "IL-1", "experiment": "Hypoxia-induced IL-1 production (ELISA), BV-2", "format": "cell-based, murine", "protocol": "as §3\nCytokines (IL-1β, IL-6) and PGE2 were measured using ELISA kits (R&D, Minneapolis, MN, USA). The absorbance at 450 nm was determined using a microplate reader (spectraMAX 340)."}, "JNK": {"test_system": "JNK", "experiment": "Western blot of hypoxia-induced signaling, PC12: JNK", "format": "cell-based, rat", "conditions": "PC12 cells, 10 min hypoxia (Figure 5C), BBD 20 μM", "protocol": "as §3\n(§6) Samples containing 25 μg of protein were separated on 12.5% (w/v) sodium dodecyl sulfate-polyacrylamide gels, and transferred to immobilon polyvinylidenedifluoride membranes (Millipore, Bedford, USA). The membranes were incubated for 2 h with 5% (w/v) dry skim milk in TBST buffer to block non-specific binding, then ERK, p38 JNK, AKT-1, COX-2, caspase-3, β-actin proteins for neuron cells were detected by a chemiluminescence detection system according to the manufacturer’s instructions (ECL, Amersham, Berkshire, UK)."}, "ERK": {"test_system": "ERK", "experiment": "Western blot of hypoxia-induced signaling, PC12: ERK", "format": "cell-based, rat", "conditions": "PC12 cells, 10 min hypoxia (Figure 5C), BBD 20 μM", "protocol": "as §3, §6"}, "p38": {"test_system": "p38", "experiment": "Western blot of hypoxia-induced signaling, PC12: p38", "format": "cell-based, rat", "conditions": "PC12 cells, 10 min hypoxia (Figure 5C), BBD 20 μM", "protocol": "as §3, §6"}, "[7]": {"conditions": "BV-2 cells, hypoxia 30 min, BBD 1, 10, 20 μM"}},
  "data": [
    {"smiles": "COc1cccc(CC(CO)C(CO)Cc2cccc(OC)c2)c1", "note": "(stereo not shown) [BBD, 3-bis (3-methoxybenzyl) butane-1,4-diol]", "values": [
      {"measurement": "decrease of MDA level as compared to the ischemia group", "setting": "[1]", "result": 6, "unit": "%"},
      {"measurement": "MDA level", "setting": "[1]; ischemia group 83 μM", "result": 78, "unit": "µM"},
      {"measurement": "increase of SOD activity as compared to the ischemia group", "setting": "[2]", "result": 24, "unit": "%"},
      {"measurement": "SOD activity", "setting": "[2]; ischemia group 68 μ/mL", "result": 84, "unit": "μ/mL"},
      {"measurement": "cell viability (MTT) under hypoxia", "setting": "PC12 cells [3]", "result": "preserved"},
      {"measurement": "cell viability (MTT) under hypoxia", "setting": "BV-2 cells [4]", "result": "increased"},
      {"measurement": "hypoxia-induced LDH release", "setting": "PC12 cells [5]", "result": "decreased"},
      {"measurement": "hypoxia-induced LDH release", "setting": "BV-2 cells [6]", "result": "reduced"},
      {"measurement": "hypoxia-induced ROS accumulation (DCF signal)", "setting": "ROS in BV-2 cells; [7]", "result": "decreasing the ROS accumulation"},
      {"measurement": "inhibition of hypoxia-induced ROS production", "setting": "ROS in BV-2 cells; hypoxia, cell line and concentration not stated", "result": "40-50%"},
      {"measurement": "hypoxia-induced increase in MDA level", "setting": "MDA in BV-2 cells", "result": "suppressed"},
      {"measurement": "hypoxia-induced IL-1 production", "setting": "IL-1; [7]", "result": "dose-dependently decreased"},
      {"measurement": "inhibition of hypoxia-induced IL-1 production", "setting": "IL-1; hypoxia, concentration not given", "result": "40-50%"},
      {"measurement": "suppressed hypoxia induced expression of JNK", "setting": "JNK", "result": "86 ± 5", "unit": "%"},
      {"measurement": "suppressed hypoxia induced expression of ERK", "setting": "ERK", "result": "9 ± 7", "unit": "%"},
      {"measurement": "suppressed hypoxia induced expression of p38", "setting": "p38", "result": "-10 ± 9", "unit": "%"}
    ]}
  ]
}
